Laboratory results: ChEMBL document CHEMBL3774345, “Synthesis of new diarylamides with pyrimidinyl pyridine scaffold and evaluation of their anti-proliferative effect on cancer cell lines” (Bioorg Med Chem Lett, 2016)

Columns and labels:
[1] = Cytotoxicity against human IGROV1 cells assessed as cell growth at 10^-8 M after 24 hrs by SRB assay; assay type: functional; conditions: IGROV-1, 24 h, read-out: Activity
[2] = Cytotoxicity against human HCT15 cells assessed as cell growth at 10^-5 M after 24 hrs by SRB assay; assay type: functional; conditions: HCT-15, 24 h, read-out: Activity
[3] = system: K562; assay: Cytotoxicity against human K562 cells assessed as cell growth at 10^-8 M after 24 hrs by SRB assay; assay type: functional; conditions: K562, 24 h, read-out: Activity
[4] = system: Malme-3M; assay: Cytotoxicity against human MALME-3M cells assessed as cell growth at 10^-4 M after 24 hrs by SRB assay; assay type: functional; conditions: read-out: Activity
[5] = system: HT-29; assay: Cytotoxicity against human HT-29 cells assessed as cell growth at 10^-5 M after 24 hrs by SRB assay; assay type: functional; conditions: HT-29, 24 h, read-out: Activity
[6] = system: SR; assay: Cytotoxicity against human SR cells assessed as cell growth at 10^-6 M after 24 hrs by SRB assay; assay type: functional; conditions: read-out: Activity
[7] = system: EKVX; assay: Cytotoxicity against human EKVX cells assessed as cell growth at 10^-5 M after 24 hrs by SRB assay; assay type: functional; conditions: read-out: Activity
[8] = Cytotoxicity against human TK10 cells assessed as cell growth at 10^-7 M after 24 hrs by SRB assay; assay type: functional; conditions: TK-10, 24 h, read-out: Activity
[9] = Cytotoxicity against human HCT116 cells assessed as cell growth at 10^-5 M after 24 hrs by SRB assay; assay type: functional; conditions: HCT-116, 24 h, read-out: Activity
[10] = system: NCI-H522; assay: Cytotoxicity against human NCI-H522 cells assessed as cell growth at 10^-6 M after 24 hrs by SRB assay; assay type: functional; conditions: NCI-H522, 24 h, read-out: Activity
[11] = Cytotoxicity against human HCT15 cells assessed as cell growth at 10^-7 M after 24 hrs by SRB assay; assay type: functional; conditions: HCT-15, 24 h, read-out: Activity
[12] = Cytotoxicity against human BT549 cells assessed as cell growth at 10^-6 M after 24 hrs by SRB assay; assay type: functional; conditions: BT-549, 24 h, read-out: Activity
[13] = system: T47D; assay: Cytotoxicity against human T47D cells assessed as cell growth at 10^-6 M after 24 hrs by SRB assay; assay type: functional; conditions: read-out: Activity
[14] = Cytotoxicity against human HOP92 cells assessed as cell growth at 10^-4 M after 24 hrs by SRB assay; assay type: functional; conditions: HOP-92, 24 h, read-out: Activity
[15] = Cytotoxicity against human OVCAR8 cells assessed as cell growth at 10^-4 M after 24 hrs by SRB assay; assay type: functional; conditions: OVCAR-8, 24 h, read-out: Activity
[16] = Cytotoxicity against human MOLT4 cells assessed as cell growth at 10^-5 M after 24 hrs by SRB assay; assay type: functional; conditions: MOLT-4, 24 h, read-out: Activity
[17] = Cytotoxicity against human SF539 cells assessed as cell growth at 10^-8 M after 24 hrs by SRB assay; assay type: functional; conditions: SF-539, 24 h, read-out: Activity
[18] = system: ACHN; assay: Cytotoxicity against human ACHN cells assessed as cell growth at 10^-6 M after 24 hrs by SRB assay; assay type: functional; conditions: read-out: Activity
[19] = Cytotoxicity against human HOP92 cells after 24 hrs by SRB assay; assay type: functional, cell-based; conditions: HOP-92, 24 h
[20] = Cytotoxicity against human OVCAR8 cells assessed as cell growth at 10^-5 M after 24 hrs by SRB assay; assay type: functional; conditions: OVCAR-8, 24 h, read-out: Activity
[21] = system: SK-MEL-5; assay: Cytotoxicity against human SK-MEL-5 cells assessed as cell growth at 10^-4 M after 24 hrs by SRB assay; assay type: functional; conditions: SK-MEL-5, 24 h, read-out: Activity
[22] = Cytotoxicity against human HCT15 cells assessed as cell growth at 10^-8 M after 24 hrs by SRB assay; assay type: functional; conditions: HCT-15, 24 h, read-out: Activity
[23] = system: M14; assay: Cytotoxicity against human M14 cells assessed as cell growth at 10^-4 M after 24 hrs by SRB assay; assay type: functional; conditions: M14, 24 h, read-out: Activity
[24] = Cytotoxicity against human Hs 578T cells assessed as cell growth at 10^-7 M after 24 hrs by SRB assay; assay type: functional; conditions: read-out: Activity
[25] = Cytotoxicity against human RXF393 cells assessed as cell growth at 10^-8 M after 24 hrs by SRB assay; assay type: functional; conditions: RXF 393, 24 h, read-out: Activity
[26] = system: EKVX; assay: Cytotoxicity against human EKVX cells after 24 hrs by SRB assay; assay type: functional
[27] = system: U-251; assay: Cytotoxicity against human U251 cells after 24 hrs by SRB assay; assay type: functional; conditions: U-251, 24 h
[28] = system: Malme-3M; assay: Cytotoxicity against human MALME-3M cells after 24 hrs by SRB assay; assay type: functional, cell-based
[29] = system: NCI-H322M; assay: Cytotoxicity against human NCI-H322M cells after 24 hrs by SRB assay; assay type: functional
[30] = Cytotoxicity against human UACC62 cells assessed as cell growth at 10^-8 M after 24 hrs by SRB assay; assay type: functional; conditions: UACC-62, 24 h, read-out: Activity
[31] = system: 786-0; assay: Cytotoxicity against human 786-0 cells after 24 hrs by SRB assay; assay type: functional, cell-based; conditions: 786-0, 24 h
[32] = Cytotoxicity against human SF539 cells assessed as cell growth at 10^-7 M after 24 hrs by SRB assay; assay type: functional; conditions: SF-539, 24 h, read-out: Activity
[33] = Cytotoxicity against human SF295 cells assessed as cell growth at 10^-5 M after 24 hrs by SRB assay; assay type: functional; conditions: SF-295, 24 h, read-out: Activity
[34] = system: NCI-H522; assay: Cytotoxicity against human NCI-H522 cells assessed as cell growth at 10^-4 M after 24 hrs by SRB assay; assay type: functional; conditions: NCI-H522, 24 h, read-out: Activity
[35] = Cytotoxicity against human UACC257 cells assessed as cell growth at 10^-4 M after 24 hrs by SRB assay; assay type: functional; conditions: UACC-257, 24 h, read-out: Activity
[36] = Cytotoxicity against human OVCAR5 cells assessed as cell growth at 10^-5 M after 24 hrs by SRB assay; assay type: functional; conditions: OVCAR-5, 24 h, read-out: Activity
[37] = read-out: LC50 (the source's name)
[38] = read-out: pLC50 (the source's name) (converted)

SMILES: O=C(Nc1cc(-c2cccnc2)nc(NCCCN2CCOCC2)n1)c1cc(Br)cc(C(F)(F)F)c1
- growth at 0.01 µM [1]: 103%
- growth at 10 µM [2]: -32%
- growth at 0.01 µM [3]: 107%
- growth at 100 µM [4]: -78%
- growth at 10 µM [5]: -41%
- growth at 1 µM [6]: 85%
- growth at 10 µM [7]: 17%
- growth at 0.1 µM [8]: 91%
- growth at 10 µM [9]: -44%
- growth at 1 µM [10]: 83%
- growth at 0.1 µM [11]: 92%
- growth at 1 µM [12]: 83%
- growth at 1 µM [13]: 88%
- growth at 100 µM [14]: -94%
- growth at 100 µM [15]: -79%
- growth at 10 µM [16]: 9%
- growth at 0.01 µM [17]: 95%
- growth at 1 µM [18]: 92%
- IC50 [19]: 1.97 µM
- GI50 ([19]; read-out: GI50): 1.97 µM
- CC50 [19, 37]: 29.9 µM
- TGI ([19]; read-out: TGI): 7.62 µM
- GI50 ([19]; read-out: pGI50 (converted)): 1.95 µM
- CC50 [19, 38]: 30.2 µM
- TGI ([19]; read-out: pTGI (converted)): 7.59 µM
- growth at 10 µM [20]: -7%
- growth at 100 µM [21]: -100%
- growth at 0.01 µM [22]: 91%
- growth at 100 µM [23]: -71%
- growth at 0.1 µM [24]: 94%
- growth at 0.01 µM [25]: 99%
- GI50 ([26]; read-out: GI50): 2.72 µM
- CC50 [26, 37]: 42.7 µM
- TGI ([26]; read-out: TGI): 14.4 µM
- GI50 ([26]; read-out: pGI50 (converted)): 2.69 µM
- CC50 [26, 38]: 42.7 µM
- TGI ([26]; read-out: pTGI (converted)): 14.5 µM
- GI50 ([27]; read-out: GI50): 2.05 µM
- CC50 [27, 37]: 9.04 µM
- TGI ([27]; read-out: TGI): 4.3 µM
- GI50 ([27]; read-out: pGI50 (converted)): 2.04 µM
- CC50 [27, 38]: 9.12 µM
- TGI ([27]; read-out: pTGI (converted)): 4.27 µM
- IC50 [28]: 1.76 µM
- GI50 ([28]; read-out: GI50): 1.76 µM
- CC50 [28, 37]: 7.28 µM
- TGI ([28]; read-out: TGI): 3.58 µM
- GI50 ([28]; read-out: pGI50 (converted)): 1.78 µM
- CC50 [28, 38]: 7.24 µM
- TGI ([28]; read-out: pTGI (converted)): 3.55 µM
- GI50 ([29]; read-out: GI50): 3.72 µM
- CC50 [29, 37]: 43.2 µM
- TGI ([29]; read-out: TGI): 15 µM
- GI50 ([29]; read-out: pGI50 (converted)): 3.72 µM
- CC50 [29, 38]: 43.7 µM
- TGI ([29]; read-out: pTGI (converted)): 15.1 µM
- growth at 0.01 µM [30]: 89%
- IC50 [31]: 1.55 µM
- GI50 ([31]; read-out: GI50): 1.55 µM
- CC50 [31, 37]: 6.47 µM
- TGI ([31]; read-out: TGI): 3.17 µM
- GI50 ([31]; read-out: pGI50 (converted)): 1.55 µM
- CC50 [31, 38]: 6.46 µM
- TGI ([31]; read-out: pTGI (converted)): 3.16 µM
- growth at 0.1 µM [32]: 87%
- growth at 10 µM [33]: -66%
- growth at 100 µM [34]: -82%
- growth at 100 µM [35]: -93%
- growth at 10 µM [36]: 40%
